Our source for the Ki and EC50 values is patent US8846730B2, “Compounds as cannabinoid receptor ligands” (priority 2008, dated 2014).

The structures appear in SMILES notation. Read-outs that look alike come from different tables or passages of the source.

The target in one assay is human CB2 receptors (Homo sapiens (Human), UniProt P34972). As to the kind of experiment: human CB2 radioligand binding assay ([3H]CP 55,940 competition). An outline of the steps: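 Membranes from HEK293 cells stably expressing human CB2 (5 μg protein/well) competed against 0.5 nM [3H]CP 55,940 with five concentrations of test ligand (0.01 nM to 10 μM), pH 7.4 Tris buffer with BSA, 90 min at 30 °C. Filtration and scintillation counting; nonspecific binding with 10 μM unlabeled CP 55,940.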

The target of a further assay is rat CB2 receptors (Rattus norvegicus (Rat), UniProt Q9QZN9). As to the kind of experiment: rat CB2 radioligand binding assay ([3H]CP 55,940 competition). Particulars: HEK293 membranes, 0.5 nM [3H]CP 55,940. An outline of the steps:
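Membranes from HEK293 cells stably expressing rat CB2 (20 μg protein/well) were incubated 45 min at 30 °C with 0.5 nM [3H]CP 55,940 and five displacer concentrations, in pH 7.4 Tris buffer with 0.5 mg/mL BSA. Bound radioactivity was measured by filtration. Nonspecific binding was defined with 10 μM unlabeled CP 55,940.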

Assay [1] has as its target rat CB2 receptors (HEK cells) (Rattus norvegicus (Rat), UniProt Q9QZN9). The assay is described as follows: rat CB2 cyclase functional assay (HitHunter cAMP). Type of assay: cell-based. The procedure: The cyclase functional assays were performed using the HitHunter™ cAMP assay kit from DiscoveRx (Fremont, Calif.) according to vendor's protocol. Briefly, HEK cells expressing CB2 or CB1 receptors (rat or human) were detached using cell dissociation buffer (Invitrogen, Carlsbad, Calif.), dispersed and placed in suspension at 10,000 cells per well in 96 well plates prior to the assay. Cell suspensions were incubated at 37° C. for 20 min with variable concentrations of test ligands and or 10 μM CP 55,940-positive control in the presence of a fixed concentration of forskolin (18 μM for rat CB2 and 37 μM for rat CB1) in Dulbescco's phosphate-buffered saline (Invitrogen, Carlsbad, Calif.) supplemented with bovine serum albumin (0.01% final concentration). The reactions were terminated by the addition of lysis buffer and the luminescence was detected following the procedure according to the manufacturer's instructions. EC50 values were calculated using sigmoidal dose-response curve fitting from Prism (GraphPad).

Assay [2] deals with rat CB1 receptors (HEK cells) (Rattus norvegicus (Rat), UniProt P20272). The assay is described as follows: rat CB1 cyclase functional assay (HitHunter cAMP). Type of assay: cell-based.
Where [3] appears, read: HEK293 membranes, 0.5 nM [3H]CP 55,940, read-out: human CB2 (Ki).
Setting [4] is: HEK cells, forskolin 18 μM, read-out: rat CB2 cyclase (EC50).

Chain of human CB2 receptors (P34972 whole entry): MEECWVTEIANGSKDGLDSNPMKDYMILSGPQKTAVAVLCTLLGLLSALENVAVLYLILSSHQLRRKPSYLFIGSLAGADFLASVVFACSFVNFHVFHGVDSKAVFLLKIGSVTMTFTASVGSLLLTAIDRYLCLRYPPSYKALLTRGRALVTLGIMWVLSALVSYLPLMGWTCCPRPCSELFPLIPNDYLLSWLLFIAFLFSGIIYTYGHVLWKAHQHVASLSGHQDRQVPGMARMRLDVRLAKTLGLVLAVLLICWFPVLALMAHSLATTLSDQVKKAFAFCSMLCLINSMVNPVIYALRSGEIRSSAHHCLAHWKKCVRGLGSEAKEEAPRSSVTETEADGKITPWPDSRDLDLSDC
Chain of rat CB1 receptors (HEK cells) (P20272 whole entry): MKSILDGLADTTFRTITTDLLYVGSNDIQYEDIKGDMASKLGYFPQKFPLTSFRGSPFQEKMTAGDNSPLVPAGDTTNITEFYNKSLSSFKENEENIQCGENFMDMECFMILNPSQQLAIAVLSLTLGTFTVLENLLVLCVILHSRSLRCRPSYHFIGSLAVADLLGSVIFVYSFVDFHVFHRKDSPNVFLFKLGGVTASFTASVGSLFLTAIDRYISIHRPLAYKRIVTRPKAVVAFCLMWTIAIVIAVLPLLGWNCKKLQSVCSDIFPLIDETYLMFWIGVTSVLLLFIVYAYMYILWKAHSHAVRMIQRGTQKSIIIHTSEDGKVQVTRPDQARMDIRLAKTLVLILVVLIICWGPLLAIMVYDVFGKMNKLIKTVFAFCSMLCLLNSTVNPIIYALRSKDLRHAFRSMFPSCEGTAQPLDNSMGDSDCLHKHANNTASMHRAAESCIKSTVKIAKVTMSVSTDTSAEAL

`CC(C)(C)c1cn(C[C@H]2CCCO2)/c(=N/C(=O)c2cc(C(F)(F)F)ccc2OC[C@@H]2CCCN2)s1` [Example 44, N-[(2Z)-5-tert-butyl-3-[(2R)-tetrahydrofuran-2-ylmethyl]-1,3-thiazol-2(3H)-ylidene]-2-[(2S)-pyrrolidin-2-ylmethoxy]-5-(trifluoromethyl)benzamide]: the Ki (usually the equilibrium dissociation constant of an inhibitor or competing ligand from its target) worked out at 4.6 nM on human CB2 receptors (setting [3]) and 2 nM at rat CB2 receptors. For the same molecule, the figures for the EC50 in assay [1] and in assay [2] were 0.39 nM and 4730 nM, respectively.

`CN1CC[C@H]1COc1ccc(C(F)(F)F)cc1C(=O)/N=c1\sc(C(C)(C)C)cn1C[C@H]1CCCO1` [Example 3, N-[(2Z)-5-tert-butyl-3-[(2R)-tetrahydrofuran-2-ylmethyl]-1,3-thiazol-2(3H)-ylidene]-2-{[(2S)-1-methylazetidin-2-yl]methoxy}-5-(trifluoromethyl)benzamide]: the Ki is 7.4 nM on human CB2 receptors (setting [3]) and 4.5 nM on rat CB2 receptors. Moreover, the EC50 (as a rule, the concentration giving half of the maximal effect) in assay [1] (setting [4]) is 0.09 nM; in assay [2], 1020 nM.

As for `CC(C)(C)c1cn(C[C@H]2CCCO2)/c(=N/C(=O)c2cc(C(F)(F)F)ccc2OC[C@H](N)CO)s1` [Example 69, 2-{[(2R)-2-amino-3-hydroxypropyl]oxy}-N-[(2Z)-5-tert-butyl-3-[(2R)-tetrahydrofuran-2-ylmethyl]-1,3-thiazol-2(3H)-ylidene]-5-(trifluoromethyl)benzamide], the Ki on human CB2 receptors came to 3.6 nM; at rat CB2 receptors, 0.9 nM. The EC50 in assay [1] (setting [4]) is 0.14 nM; in assay [2] it was 1610 nM.

For the molecule `CC(C)(C)c1cn(C[C@H]2CCCO2)/c(=N/C(=O)c2cc(C(F)(F)F)ccc2OC[C@@H]2CCN2)s1` [Example 2, 2-[(2S)-azetidin-2-ylmethoxy]-N-[(2Z)-5-tert-butyl-3-[(2R)-tetrahydrofuran-2-ylmethyl]-1,3-thiazol-2(3H)-ylidene]-5-(trifluoromethyl)benzamide], the Ki was determined as 15 nM at human CB2 receptors (setting [3]) and 3 nM on rat CB2 receptors. Further, the figures for the EC50 in assay [1] (setting [4]) and in assay [2] were 0.64 nM and 3240 nM, respectively.

Turning to `CCN1CCC[C@H]1COc1ccc(C(F)(F)F)cc1C(=O)/N=c1\sc(C(C)(C)C)cn1C[C@H]1CCCO1` [Example 45, N-[(2Z)-5-tert-butyl-3-[(2R)-tetrahydrofuran-2-ylmethyl]-1,3-thiazol-2(3H)-ylidene]-2-{[(2S)-1-ethylpyrrolidin-2-yl]methoxy}-5-(trifluoromethyl)benzamide], the Ki on human CB2 receptors (setting [3]) is 8.2 nM; at rat CB2 receptors, 8.6 nM. For the same molecule, the EC50 came out at 0.83 nM in assay [1] (setting [4]) and 5010 nM in assay [2].

In the case of `CC(C)(C)c1cn(C[C@H]2CCCO2)/c(=N/C(=O)c2cc(C(F)(F)F)ccc2OCc2cccc[n+]2[O-])s1` [Example 20, N-[(2Z)-5-tert-butyl-3-[(2R)-tetrahydrofuran-2-ylmethyl]-1,3-thiazol-2(3H)-ylidene]-2-[(1-oxidopyridin-2-yl)methoxy]-5-(trifluoromethyl)benzamide], the values for the Ki on human CB2 receptors (setting [3]) and on rat CB2 receptors were 209 nM and 51 nM, respectively. For the same molecule, the EC50 was 0.47 nM in assay [1] (setting [4]) and 7980 nM in assay [2].

In the case of `CC(C)(C)c1cn(C[C@H]2CCCO2)/c(=N/C(=O)c2cc(C(F)(F)F)ccc2OCc2ccn[nH]2)s1` [Example 56, N-[(2Z)-5-tert-butyl-3-[(2R)-tetrahydrofuran-2-ylmethyl]-1,3-thiazol-2(3H)-ylidene]-2-(1H-pyrazol-5-ylmethoxy)-5-(trifluoromethyl)benzamide], the Ki on human CB2 receptors (setting [3]) is 11 nM; on rat CB2 receptors, 5.1 nM. Further, the EC50 in assay [1] (setting [4]) worked out at 0.76 nM; in assay [2], 3050 nM.

Turning to `CC(C)(C)c1cn(C[C@H]2CCCO2)/c(=N/C(=O)c2cc(C(F)(F)F)ccc2OCc2cnco2)s1` [Example 37, N-[(2Z)-5-tert-butyl-3-[(2R)-tetrahydrofuran-2-ylmethyl]-1,3-thiazol-2(3H)-ylidene]-2-(1,3-oxazol-5-ylmethoxy)-5-(trifluoromethyl)benzamide], the Ki at human CB2 receptors (setting [3]) was 26 nM; at rat CB2 receptors, 9 nM. Besides, the concentration giving a half-maximal response (EC50) in assay [1] was determined as 0.5 nM; in assay [2] it was 7550 nM.
